From US11161871B2, “Crystalline form of obeticholic acid and preparation method therefor” (Jiangsu Hengrui Medicine Co., Ltd., priority 2016, dated 2021)
One block for each compound: values may come before it.

Legend:
[1] = Stability of crystal form E spread flat in the air under lighting, heating and high humidity, purity by HPLC; assay type: physicochemical; conditions: for Purity detected by HPLC, 40° C.: heating 40° C.; for Purity detected by HPLC, 60° C.: heating 60° C.; for Purity detected by HPLC, RH 75%: high humidity RH 75%; for Purity detected by HPLC, RH 90%: high humidity RH 90%; for Purity detected by HPLC, Lighting: lighting 4500 Lux
Procedure: Samplings were carried out on Day 5 and Day 10.

[2] = Special stability study: grinding, heating, tableting (crystal form, DSC); assay type: physicochemical
[3] = Stability under placement condition (30° C., RH 65%), HPLC purity and X-ray powder diffraction; assay type: physicochemical; conditions: for Crystal form (X-ray powder diffraction) / Purity determined by HPLC: 30° C.
Procedure: Samplings were carried out on Day 5, Day 10, and Day 30.

[4] = Drying at 80° C. of crystal product crystallized with butyl acetate; assay type: physicochemical; conditions: crystal product from butyl acetate dried at 80° C.
[5] = placebo-controlled phase III clinical trial; cited from earlier work

Purity detected by HPLC, 40° C. ([1]; day 0): 99.7%
Purity detected by HPLC, 40° C. ([1]; day 5): 99.6%
Purity detected by HPLC, 40° C. ([1]; day 10): 99.5%
Purity detected by HPLC, 60° C. ([1]; day 0): 99.7%
Purity detected by HPLC, 60° C. ([1]; day 5): 99.4%
Purity detected by HPLC, 60° C. ([1]; day 10): 99.1%
Purity detected by HPLC, RH 75% ([1]; day 0): 99.7%
Purity detected by HPLC, RH 75% ([1]; day 5): 99.7%
Purity detected by HPLC, RH 75% ([1]; day 10): 99.7%
Purity detected by HPLC, RH 90% ([1]; day 0): 99.7%
Purity detected by HPLC, RH 90% ([1]; day 5): 99.6%
Purity detected by HPLC, RH 90% ([1]; day 10): 99.5%
Purity detected by HPLC, Lighting ([1]; day 0): 99.7%
Purity detected by HPLC, Lighting ([1]; day 5): 99.6%
Purity detected by HPLC, Lighting ([1]; day 10): 99.6%
Stability (in words) ([1]; lighting, high temperature and high humidity (summary statement)): stable
Stability (in words) ([1]; spread flat in the air, high temperature): slightly degraded
Stability (in words) ([1]; spread flat in the air, lighting/high humidity): good stability
DSC peak ([2]; after grinding treatment for 10 minutes in a mortar under nitrogen): 94.3 °C
DSC peak ([2]; after heating treatment for 3 hours at 80° C.): 94.5 °C
DSC peak ([2]; after tableting treatment): 94.6 °C
Stability of the crystal form (in words) ([2]; ground, heated or tableted (grinding, pressure and heating)): the crystal form was stable
Crystal form (X-ray powder diffraction) ([3]; Day 0): Crystal form E
Purity determined by HPLC ([3]; Day 0): 99.75%
Crystal form (X-ray powder diffraction) ([3]; Day 5): Crystal form E
Purity determined by HPLC ([3]; Day 5): 99.72%
Crystal form (X-ray powder diffraction) ([3]; Day 10): Crystal form E
Purity determined by HPLC ([3]; Day 10): 99.73%
Crystal form (X-ray powder diffraction) ([3]; Day 30): Crystal form E
Purity determined by HPLC ([3]; Day 30): 99.70%
Stability (in words) ([3]; placement condition 30° C., up to Day 30): stable under the placement condition
SMILES: CC[C@H]1[C@@H](O)[C@@H]2[C@H](CC[C@]3(C)[C@@H]([C@H](C)CCC(=O)O)CC[C@@H]23)[C@@]2(C)CC[C@@H](O)C[C@@H]12 [Crystal form E, obeticholic acid]

SMILES: CC[C@H]1[C@@H](O)[C@@H]2[C@H](CC[C@]3(C)[C@@H]([C@H](C)CCC(=O)O)CC[C@@H]23)[C@@]2(C)CC[C@@H](O)C[C@@H]12 [obeticholic acid]
Thermal stability on drying (colour change, degradation) [4]: unstable at 80 °C and has undergone degradation
Biomarkers associated with reduced risk of liver transplantation [5]: increases the level of two biomarkers associated with reduced risk of liver transplantation
